The text below walks through data of US20250057990A1, “TISSUE-SPECIFIC MANGANESE BASED MRI CONTRAST AGENTS” (CASE WESTERN RESERVE UNIVERSITY, priority 2021, published 2025).

The conditions of series [1]: from literature, cited from earlier work.
For series [2] the following is noted: from literature, cited from earlier work. This is another data set of the same source.
Series [3] in a line: Relaxivity measurements of Mn(EOB-PC2A) in DPBS. It counts as physicochemical. As for the experimental part: (§1) Solutions of Mn(EOB-PC2A) were prepared in DPBS or saline containing 4.5% human serum albumin. The T1 and T2 relaxation times at 1.5T were measured using a Bruker Minispec Relaxometer ([…], 37° C.; Bruker, Billerica, MA, USA). The T1 relaxation times were also measured at 3T using an MRS3000 3T small animal scanner from MR solutions (MR Solutions, Surrey, UK) with a T1 mapping sequence (TR=10 ms, TE=4 ms, T1=50 ms, FOV=40×40 mm, slice thickness=2 mm, number of slices=1, Nav=1, matrix=256×128, flip angle=8°). The r1 and r2 relaxivities were calculated as the slope of the 1/T1 and 1/T2 vs. Mn concentration, respectively.

Series [4] has as its system DU145 prostate cancer cells. As to the kind of experiment: Cell viability analysis (CCK8) in DU145 cells. The format is cell-based. Particulars: 48 hours, physiologically relevant concentrations. As for the experimental part: (§2) DU145 cells were purchased from American Type Culture Collection (ATCC, Manassas, VA, USA). HepG2 cells were kindly gifted by Dr. Zhenghong Lee at Case Western Reserve University (CWRU, Cleveland, OH, USA). All cell lines were cultured in Dulbecco's Modified Eagle's Medium (DMEM, Gibco, Amarillo, TX, USA) supplemented with 1% penicillin-streptomycin (Gibco) and 10% fetal bovine serum (Gibco) and incubated at 37° C. and 5% CO2.
(§3) Cells in culture were trypsonized and counted. In a 96-well plate, cells were seeded at 5,000 cells per well and incubated for 1 day to adhere and proliferate. Cells were then incubated with increasing concentrations of the liver-targeted MBCA for 48 hours. To measure cell viability, a CCK8 assay was performed according to the manufacturer's instructions (Dojindo Molecular Technologies, Inc., Kumamoto, JP). Percent cell viability was calculated as the signal intensity of the treated well divided by the signal intensity of the untreated control wells after accounting for background signal.

Series [5] concerns HepG2 hepatoma cells. As to the kind of experiment: Cell viability analysis (CCK8) in HepG2 cells. The format is cell-based. Particulars: 48 hours, physiologically relevant concentrations. How it is done:
as §2, §3

Series [6] can be described thus: Relaxivity measurements of Mn(EOB-PC2A) in saline containing 4.5% human serum albumin. The format is physicochemical. The note with it: 4.5% human serum albumin in saline, 1.5T, 37° C. How it is done:
as §1

Series [7] concerns HepG2 hepatoma cells. In words: Cell uptake analysis (ICP-OES manganese content). Particulars: 2 mM, 2 hours. It counts as cell-based. As for the experimental part: Cells were plated in a 6-well plate and incubated for 1 day to adhere and proliferate. Cells were then incubated for 2 hours with 2 mM Mn(EOB-PC2A), after which they were washed three times with DPBS, trypsonized, and pelleted. Cells were resuspended in 250 μL of 75% HNO3 for 48 hours for dissolution, after which 4.75 mL distilled water was added. The samples were centrifuged at 4,000 rpm for 30 minutes to pellet any non-dissolved components and the supernatant was collected. Manganese content in the cell solution was quantified by inductively coupled plasma optical emission spectroscopy (ICP-OES 730, Agilent Technologies, Santa Clara, CA, USA).

The subject of series [8] is C57BL6 mice. As to the kind of experiment: T1-weighted axial fast spin-echo MRI of the liver. It counts as in vivo. Particulars: 0.060 mmol/kg i.v. How it is done:
(§4) All animal and imaging procedures were performed according to an approved Institutional Animal Care and Use Committee protocol. Male C57BL6 mice were purchased from Jackson Labs (Bar Harbor, ME, USA), housed in an animal facility.
(§5) All imaging experiments were performed using the MRS3000 3T small animal scanner. Mice (n=5) were anesthetized with 2% isoflurane, the tail vein was cannulized with a catheter, followed by transferal to the heated mouse bed of the MRI scanner. Mice were monitored with a respiration monitor while in the scanner. Before and at 15 and 30 minutes after administration of 60 μmol/kg Mn(EOB-PC2A), mice were imaged with a T1w axial fast spin-echo sequence with respiratory gating (TR=305 ms, TE=11 ms, FOV=40×40 mm, slice thickness=1 mm, number of slices=15, Nav=4, matrix=256×248) and a 3D FLASH sequence (TR=16 ms, […], T1=1000 ms, FOV=70×35 mm, slice thickness=35 mm, number of slices=1, Nav=3, matrix=256×128, flip angle=25°). Mice underwent an additional T1w axial spin-echo and 3D FLASH acquisitions at 24 hours post-injection.
(§6) MR images were exported in DICOM format, and processed and analyzed using FIJI software (https://imagej.net/software/fiji/). The signal-to-noise ratio [stissue/σnoise] and contrast-to-noise ratio [(stissue−smuscle)/σnoise] were calculated for the relevant tissues of each mouse at every time point. Subtraction images were produced for the 3D FLASH images by first dividing the pixel values of the images of each acquisition by the scaling factor assigned by the MRS software, and then subtracting the corresponding pre-contrast baseline images from the post-contrast images. Maximum intensity projections and 3-dimensional projections were produced for the raw and subtraction 3D FLASH images in FIJI using the “Z-project” function and the “3D-project” function with interpolation, respectively.

For series [9], the system named is C57BL6 mice. As to the kind of experiment: 3D FLASH whole-body MRI. The format is in vivo. Particulars: for Delta SNR: 0.060 mmol/kg. Further details: key to Delta SNR: change in SNR, where SNR = s_tissue/σ_noise. As for the experimental part:
as §4, §5, §6

The conditions of series [10]: in vivo; cited from earlier work.
Setting [11] is: blood plasma (human plasma), 1.5 T.
The mark [12] stands for this setting: 15 minutes post-injection, relative to pre-contrast baseline.
Where [13] appears, read: 30 minutes post-injection, relative to pre-contrast baseline.
Where [14] appears, read: 24 hours post-injection, relative to pre-contrast baseline.

Several values for one entry are separate records, joined by “and”; a condition that tells them apart may be missing. Equal values may be shown once. Read-outs that look alike come from different tables or passages of the source.

On to `O=C([O-])CN1CCNCc2cccc(n2)CN(CC(=O)[O-])CC1.[Mn+2]` [Mn-3,6-PC2A], for which, in series [1] (Seronorm, 1.41 T), the “r1 relaxivity Plasma/Serum” value is 3.0 mM⁻¹ s⁻¹. Besides, the “r1 relaxivity Water/DPBS” value in [2] (water, 1.41 T) is 2.4 mM⁻¹ s⁻¹.

Take mangafodipir: the “r1 relaxivity Plasma/Serum” value in series [1] (setting [11]) was 3.6 mM⁻¹ s⁻¹. In [2] (1.5 T), the “r1 relaxivity Water/DPBS” value was 1.6 mM⁻¹ s⁻¹.

For the compound `O=C([O-])CN1CCNCCN(CC(=O)[O-])Cc2cccc(n2)C1.[Mn+2]` [Mn-3,9-PC2A], the “r1 relaxivity Plasma/Serum” value in [1] (Seronorm, 1.41 T) is 3.3 mM⁻¹ s⁻¹. Also, the “r1 relaxivity Water/DPBS” value in series [2] (water, 1.41 T) is 2.2 mM⁻¹ s⁻¹.

Turning to Mn(EOB-PC2A), the “r1 relaxivity Water/DPBS” value in [3] (1.5T, 37° C.) was 2.83 mM⁻¹ s⁻¹ and 2.8 mM⁻¹ s⁻¹. For the same compound, the r1 relaxivity in series [3] (3 T) is 2.61 mM⁻¹ s⁻¹. The cytotoxicity entry (in [4]; in the series on HepG2 hepatoma cells [5]) was “no cytotoxicity” throughout. Further, the “r1 relaxivity Plasma/Serum” value in [6] was 5.85 mM⁻¹ s⁻¹ and 5.9 mM⁻¹ s⁻¹. The “intracellular concentration of Mn(II) relative to untreated cells” value in the series on HepG2 hepatoma cells [7] turned out to be 17 times. Also, the “normalized CNR of the liver” value in the series on C57BL6 mice [8] (setting [12]) was found to be 3.20; with C57BL6 mice [8] (setting [13]), 3.12. Moreover, the “normalized SNR of the liver” value turned out to be 1.41 with C57BL6 mice [8] (setting [12]) and 1.42 in the series on C57BL6 mice [8] (setting [13]). The “liver CNR” value in the series with C57BL6 mice [8] (setting [14]) was determined as 1.16. Besides, in the series with C57BL6 mice [8] (setting [14]), the “liver SNR” value stood at 0.86. Moreover, in the series on C57BL6 mice [8] (liver MR signal returns to pre-contrast baseline), the “washout time after injection” value is not above 24 h. In addition, the “Delta SNR” value is reported as 157.07 ± 39.02 in the series on C57BL6 mice [9] (Bladder, 15 minutes post-injection); 199.96 ± 25.86 in the series with C57BL6 mice [9] (Bladder, 30 minutes post-injection); −2.58 ± 5.42 with C57BL6 mice [9] (Bladder, 24 hours post-injection); −0.04 ± 5.85 with C57BL6 mice [9] (Heart, 15 minutes post-injection); −2.28 ± 7.11 with C57BL6 mice [9] (Heart, 30 minutes post-injection); 5.73 ± 16.25 in the series with C57BL6 mice [9] (Heart, 24 hours post-injection). Besides, the “Delta SNR” value was determined as 27.74 ± 7.66 in the series on C57BL6 mice [9] (Kidney, 15 minutes post-injection); 21.33 ± 8.28 in the series on C57BL6 mice [9] (Kidney, 30 minutes post-injection); 3.87 ± 5.62 in the series on C57BL6 mice [9] (Kidney, 24 hours post-injection); 51.48 ± 17.20 in the series with C57BL6 mice [9] (Liver, 15 minutes post-injection); 29.19 ± 14.28 in the series with C57BL6 mice [9] (Liver, 30 minutes post-injection); 1.36 ± 6.44 in the series on C57BL6 mice [9] (Liver, 24 hours post-injection). Also, the “Delta SNR” value with C57BL6 mice [9] (Lung, 15 minutes post-injection) was −0.27 ± 0.44; in the series on C57BL6 mice [9] (Lung, 30 minutes post-injection) it was −0.41 ± 0.31; with C57BL6 mice [9] (Lung, 24 hours post-injection) it was −0.43 ± 0.71; in the series with C57BL6 mice [9] (Muscle, 15 minutes post-injection) it was −3.63 ± 3.21; with C57BL6 mice [9] (Muscle, 30 minutes post-injection), −4.07 ± 5.11; with C57BL6 mice [9] (Muscle, 24 hours post-injection), −6.62 ± 10.13. Further, the biliary elimination entry with C57BL6 mice [9] (enhancement in gallbladder, particularly 30 minutes post-injection) is recorded as “eliminated via biliary excretion”. For the same compound, the “renal elimination of unbound agent” value with C57BL6 mice [9] (signal enhancement in kidneys and urinary bladder, 15 and 30 minutes post-injection) is “rapidly excreted via renal filtration”.

As to `O=C([O-])CN(CCN(CC(=O)[O-])CC(=O)[O-])CCN(CC(=O)[O-])C(COCc1ccccc1)C(=O)[O-].[Gd+3].[H+].[H+]` (centres unmarked) [Gadobenate, gadobenate], the “r1 relaxivity Plasma/Serum” value in [1] (setting [11]) was 6.3 mM⁻¹ s⁻¹. Besides, in series [2] (1.5 T), the “r1 relaxivity Water/DPBS” value is 4.0 mM⁻¹ s⁻¹.

As for `CCOc1ccc(C[C@@H](CN(CCN(CC(=O)[O-])CC(=O)[O-])CC(=O)[O-])N(CC(=O)[O-])CC(=O)[O-])cc1.[Gd+3].[H+].[H+]` [Gadoxetate, gadoxetate], the “r1 relaxivity Plasma/Serum” value in series [1] (setting [11]) is 6.9 mM⁻¹ s⁻¹. The “time of peak enhancement after administration” value in series [10] is “around 20 minutes”. The “r1 relaxivity Water/DPBS” value in series [2] (1.5 T) was 4.7 mM⁻¹ s⁻¹.
